This note sets out measurements from patent US20230159511A1, “TETRAHYDROISOQUINOLINE COMPOUNDS AS NRF2 ACTIVATORS” (C4X Discovery Limited, priority 2020, published 2023).

SMILES strings stand for the structures.

The target of the assay is T1, human KEAP1 (N-term, residues 321-609) (Homo sapiens, UniProt Q14145).
T1 construct: human KEAP1 (N-term, residues 321-609)
In words: KEAP1 Kelch Fluorescence Polarization (FP) Assay. The assay is classed as binding. Conditions: inhibition of Kelch domain-NRF2 interaction; 2 nM FITC-labelled NRF2 peptide, 25 nM KEAP1, 1 h room temperature; compounds below 10 nM cannot be differentiated. How it is done: KEAP1 Kelch Fluorescence Polarization (FP) Assay Method
Inhibition of the Kelch domain-NRF2 interaction was determined using a fluorescence polarization-based competition assay in a black 384-well microplate. Compounds were tested at a starting concentration of 10 μM serially diluted 1:3 to generate a 12-point dose response curve on the Biomek FX robot. Each well contained 2 nM FITC-labelled NRF2 peptide (FITC-LDEETGEFL-NH2) and 25 nM human KEAP1 (N-term, residues 321-609) enzyme in a final volume of 20 μL of assay buffer (50 mM Tris-HCl pH 8.0, 100 mM NaCl, 5 mM MgCl2, 0.005% Tween-20, 0.005% BSA, 0.5% DMSO) in the presence of varying concentrations of test compound. Unlabelled peptide (LDEETGEFL-NH2) at 50 μM (negative control) and 0.5% DMSO (positive control) was used to determine the assay window.
After 1 h at room temperature, fluorescence polarization (excitation 470 nm/emission 530 nm) was measured using an Envision plate reader. IC50 values were determined by fitting the data to a four parameter logistic fit using XLfit or XE Runner within ActivityBase. The assay limit is such that compounds below 10 nM cannot be differentiated.
On the technique in general: Polarisation of emitted light reports the rotation of a fluorescent probe.

T1 sequence (Q14145 321-609): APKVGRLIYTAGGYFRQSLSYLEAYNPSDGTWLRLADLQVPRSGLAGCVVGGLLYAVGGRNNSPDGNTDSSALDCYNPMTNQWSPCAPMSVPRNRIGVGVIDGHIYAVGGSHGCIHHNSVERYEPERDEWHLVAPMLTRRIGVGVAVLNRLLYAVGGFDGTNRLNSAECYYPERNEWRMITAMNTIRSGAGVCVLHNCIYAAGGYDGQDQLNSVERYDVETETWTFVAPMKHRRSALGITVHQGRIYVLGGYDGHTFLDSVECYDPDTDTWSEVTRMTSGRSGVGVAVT

A word on the IC50: it is the concentration that inhibits the measured activity by half. A high value points to a need for much substance. The compound `CNC(=O)CCCOc1cccc2c1[C@@H](CN1C(=O)c3ccccc3C1=O)N(C(=O)[C@@H]1CCCC[C@@H]1C(=O)NC)CC2` [Example 2, (1S,2R)-2-((S)-1-((1,3-dioxoisoindolin-2-yl)methyl)-8-(4-(methylamino)-4-oxobutoxy)-1,2,3,4-tetrahydroisoguinoline-2-carbonyl)-N-methylcyclohexane-1-carboxamide] returned an IC50 of 0.339 µM. This counts as sub-micromolar.

With `CNC(=O)[C@H]1CCCC[C@H]1C(=O)N1CCc2cccc(OCCNC(=O)c3noc(C)c3C)c2[C@H]1CN1C(=O)c2ccccc2C1=O` [Example 4, N-(2-(((S)-1-((1,3-dioxoisoindolin-2-yl)methyl)-2-((1R,2S)-2-(methylcarbamoyl)cyclo-hexane-1-carbonyl)-1,2,3,4-tetrahydroisoquinolin-8-yl)oxy)ethyl)-4,5-dimethylisoxazole-3-carboxamide], the IC50 turned out to be 0.161 µM.

As to `CNC(=O)[C@H]1CCCC[C@H]1C(=O)N1CCc2cccc(O[C@H]3CCN(C(C)=O)C3)c2[C@H]1CN1C(=O)c2ccccc2C1=O` [Example 5, (1S,2R)-2-((S)-8-(((S)-1-acetylpyrrolidin-3-yl)oxy)-1-((1,3-dioxoisoindolin-2-yl)methyl)-1,2,3,4-tetrahydroisoquinoline-2-carbonyl)-N-methylcyclohexane-1-carboxamide], the IC50 came to 0.147 µM.

In turn, `Cc1cc(C(=O)NCCOc2cccc3c2[C@@H](CN2C(=O)c4ccccc4C2=O)N(C(=O)[C@@H]2CCCC[C@@H]2C(=O)NC2CC2)CC3)no1` [Example 7, N-(2-(((S)-2-((1R,2S)-2-(cyclopropylcarbamoyl)cyclohexane-1-carbonyl)-1-((1,3-dioxoisoindolin-2-yl)methyl)-1,2,3,4-tetrahydroisoquinolin-8-yl)oxy)ethyl)-5-methylisoxazole-3-carboxamide] displayed an IC50 of 0.196 µM. This IC50 and that of the compound before are within 1.5-fold of each other.

In turn, `Cc1cc(C(=O)NCCOc2cccc3c2[C@@H](CN2C(=O)c4ccccc4C2=O)N(C(=O)[C@@H]2CCCC[C@@H]2C(=O)N2CC(O)C2)CC3)no1` [Example 8, N-(2-(((S)-1-((1,3-dioxoisoindolin-2-yl)methyl)-2-((1R,2S)-2-(3-hydroxyazetidine-1-carbonyl)cyclohexane-1-carbonyl)-1,2,3,4-tetrahydroisoquinolin-8-yl)oxy)ethyl)-5-methylisoxazole-3-carboxamide] registered an IC50 of 1.28 µM.

`Cc1cc(C(=O)NCCOc2cccc3c2[C@@H](CN2C(=O)c4ccccc4C2=O)N(C(=O)[C@@H]2CCCC[C@@H]2C(=O)NC2CCC2)CC3)no1` [Example 9, N-(2-(((S)-2-((1R,2S)-2-(cyclobutylcarbamoyl)cyclo-hexane-1-carbonyl)-1-((1,3-dioxoisoindolin-2-yl)methyl)-1,2,3,4-tetrahydroisoquinolin-8-yl)oxy)ethyl)-5-methylisoxazole-3-carboxamide] displayed an IC50 of 0.119 µM.

The compound `CNC(=O)[C@H]1CCCC[C@H]1C(=O)N1CCc2cccc(OCCNC(=O)c3nc4ccccc4o3)c2[C@H]1CN1C(=O)c2ccccc2C1=O` [Example 11, N-(2-(((S)-1-((1,3-dioxoisoindolin-2-yl)methyl)-2-((1R,2S)-2-(methylcarbamoyl)cyclo-hexane-1-carbonyl)-1,2,3,4-tetrahydroisoquinolin-8-yl)oxy)ethyl)benzo[d] oxazole-2-carboxamide] returned an IC50 of 0.037 µM.

For the compound `CNC(=O)[C@H]1CCCC[C@H]1C(=O)N1CCc2cccc(OCCNC(=O)c3noc4ccccc34)c2[C@H]1CN1C(=O)c2ccccc2C1=O` [Example 12, N-(2-(((S)-1-((1,3-dioxoisoindolin-2-yl)methyl)-2-((1R,2S)-2-(methylcarbamoyl)cyclo-hexane-1-carbonyl)-1,2,3,4-tetrahydroisoquinolin-8-yl)oxy)ethyl)benzo[d] isoxazole-3-carboxamide], half-maximal inhibition (IC50) was put at 0.056 µM.

Turning to `CNC(=O)[C@H]1CCCC[C@H]1C(=O)N1CCc2cccc(OCCNS(=O)(=O)c3cnoc3C)c2[C@H]1CN1C(=O)c2ccccc2C1=O` [Example 13, (1S,2R)-2-((S)-1-((1,3-dioxoisoindolin-2-yl)methyl)-8-(2-((5-methylisoxazole)-4-sulfonamido)ethoxy)-1,2,3,4-tetrahydroisoquinoline-2-carbonyl)-N-methylcyclohexane-1-carboxamide], the IC50 is 0.169 µM.

`CNC(=O)[C@H]1CCCC[C@H]1C(=O)N1CCc2cccc(O[C@H]3CCN(C(=O)c4cncnc4)C3)c2[C@H]1CN1C(=O)c2ccccc2C1=O` [Example 14, (1S,2R)-2-((S)-1-((1,3-dioxoisoindolin-2-yl)methyl)-8-(((S)-1-(pyrimidine-5-carbonyl)pyrrolidin-3-yl)oxy)-1,2,3,4-tetrahydroisoquinoline-2-carbonyl)-N-methylcyclohexane-1-carboxamide] showed an IC50 of 0.183 µM.

`CNC(=O)[C@H]1CCCC[C@H]1C(=O)N1CCc2cccc(O[C@H]3CCN(C(=O)c4cccnc4)C3)c2[C@H]1CN1C(=O)c2ccccc2C1=O` [Example 15, (1S,2R)-2-((S)-1-((1,3-dioxoisoindolin-2-yl)methyl)-8-(((S)-1-nicotinoylpyrrolidin-3-yl)oxy)-1,2,3,4-tetrahydroisoquinoline-2-carbonyl)-N-methylcyclohexane-1-carboxamide] came in with a half-maximal inhibitory concentration (IC50) of 0.093 µM.

Turning to `CNC(=O)[C@H]1CCCC[C@H]1C(=O)N1CCc2cccc(O[C@H]3CCN(S(=O)(=O)c4cnoc4C)C3)c2[C@H]1CN1C(=O)c2ccccc2C1=O` [Example 16, (1S,2R)-2-((S)-1-((1,3-dioxoisoindolin-2-yl)methyl)-8-(((S)-1-((5-methylisoxazol-4-yl)sulfonyl)pyrrolidin-3-yl)oxy)-1,2,3,4-tetrahydroisoquinoline-2-carbonyl)-N-methylcyclohexane-1-carboxamide], the midpoint of inhibition, the IC50, lay at 0.366 µM. Compared with the last compound, the IC50 is about 3.9-fold higher.

In turn, `CNC(=O)[C@H]1CCCC[C@H]1C(=O)N1CCc2cccc(OCCNC(=O)c3nccs3)c2[C@H]1CN1C(=O)c2ccccc2C1=O` [Example 18, N-(2-(((S)-1-((1,3-dioxoisoindolin-2-yl)methyl)-2-((1R,2S)-2-(methylcarbamoyl)cyclo-hexane-1-carbonyl)-1,2,3,4-tetrahydroisoquinolin-8-yl)oxy)ethyl)thiazole-2-carboxamide] gave an IC50 of 0.119 µM. Compared with the last compound, the IC50 is about 3.1-fold lower.

Compound `CNC(=O)[C@H]1CCCC[C@H]1C(=O)N1CCc2cccc(O[C@H]3CCN(C(=O)C4CC4)C3)c2[C@H]1CN1C(=O)c2ccccc2C1=O` [Example 19, (1S,2R)-2-((S)-8-(((S)-1-(cyclopropanecarbonyl)pyrrolidin-3-yl)oxy)-1-((1,3-dioxoisoindolin-2-yl)methyl)-1,2,3,4-tetrahydroisoquinoline-2-carbonyl)-N-methylcyclohexane-1-carboxamide] displayed an IC50 of 0.196 µM.

`CNC(=O)[C@H]1CCCC[C@H]1C(=O)N1CCc2cccc(OCc3cnco3)c2[C@H]1CN1C(=O)c2ccccc2C1=O` [Example 21, (1S,2R)-2-((S)-1-((1,3-dioxoisoindolin-2-yl)methyl)-8-(oxazol-5-ylmethoxy)-1,2,3,4-tetrahydroisoquinoline-2-carbonyl)-N-methylcyclohexane-1-carboxamide] displayed a 50% inhibitory concentration (IC50) of 2.25 µM. This IC50 lies about 11-fold higher than the previous one.

On to `CNC(=O)[C@H]1CCCC[C@H]1C(=O)N1CCc2cccc(O[C@H]3CCN(C(=O)c4cnc(C)s4)C3)c2[C@H]1CN1C(=O)c2ccccc2C1=O` [Example 22, (1S,2R)-2-((S)-1-((1,3-dioxoisoindolin-2-yl)methyl)-8-(((S)-1-(2-methylthiazole-5-carbonyl)pyrrolidin-3-yl)oxy)-1,2,3,4-tetrahydroisoquinoline-2-carbonyl)-N-methylcyclohexane-1-carboxamide], for which the IC50 is 0.032 µM.

As to `CNC(=O)[C@H]1CCCC[C@H]1C(=O)N1CCc2cccc(O[C@H]3CCN(C(=O)c4sc(C)nc4C)C3)c2[C@H]1CN1C(=O)c2ccccc2C1=O` [Example 23, (1S,2R)-2-((S)-8-(((S)-1-(2,4-dimethylthiazole-5-carbonyl)pyrrolidin-3-yl)oxy)-1-((1,3-dioxoisoindolin-2-yl)methyl)-1,2,3,4-tetrahydroisoquinoline-2-carbonyl)-N-methylcyclohexane-1-carboxamide], inhibition was half-maximal at 0.606 µM (IC50). Against the preceding compound, the IC50 is about 19-fold higher.

Compound `CNC(=O)[C@H]1CCCC[C@H]1C(=O)N1CCc2cccc(O[C@H]3CCN(C(=O)c4csc(C)n4)C3)c2[C@H]1CN1C(=O)c2ccccc2C1=O` [Example 24, (1S,2R)-2-((S)-1-((1,3-dioxoisoindolin-2-yl)methyl)-8-(((S)-1-(2-methylthiazole-4-carbonyl)pyrrolidin-3-yl)oxy)-1,2,3,4-tetrahydroisoquinoline-2-carbonyl)-N-methylcyclohexane-1-carboxamide] had an IC50 of 0.294 µM.

Compound `CNC(=O)C[C@@H](C)C(=O)N1CCc2cccc(O[C@H]3CCN(C(=O)c4cncs4)C3)c2[C@H]1CN1C(=O)c2ccccc2C1=O` [Example 25, (R)-4-((S)-1-((1,3-dioxoisoindolin-2-yl)methyl)-8-(((S)-1-(thiazole-5-carbonyl)pyrrolidin-3-yl)oxy)-3,4-dihydroisoquinolin-2(1H)-yl)-N,3-dimethyl-4-oxobutanamide] displayed an IC50 of 0.292 µM.

`CNC(=O)[C@H]1CCCC[C@H]1C(=O)N1CCc2cccc(O[C@H]3CCN(C(=O)c4cncs4)C3)c2[C@H]1CN1CCCC1=O` [Example 26, (1S,2R)-N-methyl-2-((S)-1-((2-oxopyrrolidin-1-yl)methyl)-8-(((S)-1-(thiazole-5-carbonyl)pyrrolidin-3-yl)oxy)-1,2,3,4-tetrahydroisoquinoline-2-carbonyl)cyclohexane-1-carboxamide] had an IC50 of 0.061 µM.
